Key:
Format in all cases: in vivo
[1] = tested on: barnyardgrass (Echinochloa crus-galli); test: Test A preemergence, barnyardgrass; settings: Preemergence; for Plant response rating, Barnyardgrass: 0 to 100 scale (0 no effect, 100 complete control); for Barnyardgrass plant response rating: 125 g ai/ha, visual injury on 0 to 100 scale (0 no effect, 100 complete control), approximately 10 days
How it was run: (§1)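 Formulated with a surfactant in a non-phytotoxic solvent, compounds are applied to loam–sand pots, either to bare soil immediately after seeding (preemergence) or to seedlings of 2 to 10 cm bearing one to two leaves (postemergence).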

kochia (Bassia scoparia) [2] = test: Test A preemergence, kochia; settings: Preemergence; for Plant response rating, Kochia: 0 to 100 scale (0 no effect, 100 complete control); for Kochia plant response rating: 125 g ai/ha, visual injury on 0 to 100 scale (0 no effect, 100 complete control), approximately 10 days
How it was run: as §1

[3] = tested on: ragweed (common ragweed, Ambrosia artemisiifolia); test: Test A preemergence, ragweed; settings: Preemergence; for Plant response rating, Ragweed: 0 to 100 scale (0 no effect, 100 complete control); for Ragweed plant response rating: 125 g ai/ha, visual injury on 0 to 100 scale (0 no effect, 100 complete control), approximately 10 days
How it was run: as §1

[4] = tested on: Ryegrass, Italian (Italian ryegrass, Lolium multiflorum); test: Test A preemergence, Ryegrass, Italian; settings: Preemergence; for Plant response rating, Ryegrass, Italian: 0 to 100 scale (0 no effect, 100 complete control); for Ryegrass, Italian plant response rating: 125 g ai/ha, visual injury on 0 to 100 scale (0 no effect, 100 complete control), approximately 10 days
How it was run: as §1

[5] = tested on: Foxtail, Giant (giant foxtail, Setaria faberi); test: Test A preemergence, Foxtail, Giant; settings: Preemergence; for Plant response rating, Foxtail, Giant: 0 to 100 scale (0 no effect, 100 complete control); for Foxtail, Giant plant response rating: 125 g ai/ha, visual injury on 0 to 100 scale (0 no effect, 100 complete control), approximately 10 days
How it was run: as §1

[6] = tested on: pigweed (Amaranthus retroflexus); test: Test A preemergence, pigweed; settings: for Plant response rating, Pigweed: 0 to 100 scale (0 no effect, 100 complete control); for Pigweed plant response rating: 125 g ai/ha, visual injury on 0 to 100 scale (0 no effect, 100 complete control), approximately 10 days
How it was run: (§2)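 Greenhouse pot test in a loam–sand blend; compounds delivered in a non-phytotoxic solvent carrying a surfactant, applied either as a directed spray to soil at seeding or over seedlings 2 to 10 cm high with one to two leaves.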

[7] = tested on: barnyardgrass (Echinochloa crus-galli); test: Test A postemergence, barnyardgrass; settings: Postemergence; for Barnyardgrass plant response rating: 500 g ai/ha, visual injury vs untreated controls after approx. 10 days
How it was run: as §2

kochia (Bassia scoparia) [8] = test: Test A postemergence, kochia; settings: Postemergence; for Kochia plant response rating: 500 g ai/ha, visual injury vs untreated controls after approx. 10 days
How it was run: as §1

[9] = tested on: ragweed (common ragweed, Ambrosia artemisiifolia); test: Test A postemergence, ragweed; settings: Postemergence; for Ragweed plant response rating: 500 g ai/ha, visual injury vs untreated controls after approx. 10 days
How it was run: as §1

[10] = tested on: Ryegrass, Italian (Italian ryegrass, Lolium multiflorum); test: Test A postemergence, Ryegrass, Italian; settings: Postemergence; for Ryegrass, Italian plant response rating: 500 g ai/ha, visual injury vs untreated controls after approx. 10 days
How it was run: as §1

[11] = tested on: Foxtail, Giant (giant foxtail, Setaria faberi); test: Test A postemergence, Foxtail, Giant; settings: Postemergence; for Foxtail, Giant plant response rating: 500 g ai/ha, visual injury vs untreated controls after approx. 10 days
How it was run: as §1

[12] = tested on: pigweed (Amaranthus retroflexus); test: Test A postemergence, pigweed; settings: Postemergence; for Pigweed plant response rating: 500 g ai/ha, visual injury vs untreated controls after approx. 10 days
How it was run: as §1

[13] = tested on: wheat (Triticum aestivum); test: Test A postemergence, wheat; settings: Postemergence; for Wheat plant response rating: 500 g ai/ha, visual injury vs untreated controls after approx. 10 days
How it was run: as §2

corn (Zea mays) = test: Test A postemergence, corn; settings: Postemergence; for Corn plant response rating: 500 g ai/ha, visual injury vs untreated controls after approx. 10 days
How it was run: as §1

[14] = tested on: blackgrass (Alopecurus myosuroides); test: Test A postemergence, blackgrass; settings: Postemergence; for Blackgrass plant response rating: 500 g ai/ha, visual injury vs untreated controls after approx. 10 days
How it was run: as §1

[15] = tested on: galium (catchweed bedstraw, Galium aparine); test: Test A postemergence, galium; settings: Postemergence; for Galium plant response rating: 500 g ai/ha, visual injury vs untreated controls after approx. 10 days
How it was run: as §2

[16] = 31 g ai/ha, visual injury, approx. 10 days
[17] = 31 g ai/ha, visual injury on 0 to 100 scale (0 no effect, 100 complete control), approx. 10 days
[18] = 125 g ai/ha, 0 to 100 scale (0 no effect, 100 complete control)
[19] = 0 to 100 scale (0 no effect, 100 complete control)

SMILES | Barnyardgrass plant response rating [1] | Kochia plant response rating (kochia (Bassia scoparia) [2]) | Ragweed plant response rating [3] | Ryegrass, Italian plant response rating [4] | Foxtail, Giant plant response rating [5] | Pigweed plant response rating [6] | Plant response rating, Barnyardgrass [7, 18] | Plant response rating, Kochia (kochia (Bassia scoparia) [8]; [18]) | Plant response rating, Ragweed [9, 18] | Plant response rating, Ryegrass, Italian [10, 18] | Plant response rating, Foxtail, Giant [11, 18] | Plant response rating, Pigweed [12, 18] | Plant response rating, Wheat [13, 18] | Plant response rating, Corn (corn (Zea mays); [18]) | Plant response rating, Blackgrass [14, 18] | Plant response rating, Galium [15, 18] | Plant response rating, Barnyardgrass ([1]; 500 g ai/ha) | Plant response rating, Kochia (kochia (Bassia scoparia) [2]; 500 g ai/ha) | Plant response rating, Ragweed ([3]; 500 g ai/ha) | Plant response rating, Ryegrass, Italian ([4]; 500 g ai/ha) | further results
Cc1cc(C)c(C(=O)N2CCC(C#N)CC2)cc1NS(=O)(=O)C(F)(F)F [Compound 162] | 60 | 40 | 30 | 70 | 90 | 100 | 80 | 10 | 60 | 30 | 30 | 60 | 50 | 20 | 20 | 100 | – | – | – | – | Plant response rating, Barnyardgrass [1, 16]: 0; Plant response rating, Kochia (kochia (Bassia scoparia) [2]; [16]): 30; Plant response rating, Ragweed [3, 16]: 0; Plant response rating, Ryegrass, Italian [4, 16]: 40; Plant response rating, Foxtail, Giant [5, 16]: 100; Plant response rating, Pigweed [6, 16]: 100; Plant response rating, Barnyardgrass [7, 17]: 40; Plant response rating, Kochia (kochia (Bassia scoparia) [8]; [17]): 10; Plant response rating, Ragweed [9, 17]: 60; Plant response rating, Ryegrass, Italian [10, 17]: 0; Plant response rating, Foxtail, Giant [11, 17]: 10; Plant response rating, Pigweed [12, 17]: 50; Plant response rating, Wheat [13, 17]: 30; Plant response rating, Corn (corn (Zea mays); [17]): 20; Plant response rating, Blackgrass [14, 17]: 20; Plant response rating, Galium [15, 17]: 80
Cc1cc(C)c(C2=NOC3(CCC(C)(C)CC3)C2)cc1NS(=O)(=O)C(F)(F)F [Compound 163] | 90 | 0 | 20 | 80 | 50 | 50 | 0 | 10 | 0 | 0 | 0 | 60 | 0 | 0 | 20 | 70 | 100 | 80 | 60 | 100 | Plant response rating, Foxtail, Giant ([5]; 500 g ai/ha): 90; Plant response rating, Pigweed ([6]; 500 g ai/ha): 100; Barnyardgrass plant response rating [7, 19]: 80; Kochia plant response rating (kochia (Bassia scoparia) [8]; [19]): 60; Ragweed plant response rating [9, 19]: 30; Ryegrass, Italian plant response rating [10, 19]: 30; Foxtail, Giant plant response rating [11, 19]: 10; Pigweed plant response rating [12, 19]: 80; Wheat plant response rating [13, 19]: 0; Corn plant response rating (corn (Zea mays); [19]): 60; Blackgrass plant response rating [14, 19]: 30; Galium plant response rating [15, 19]: 90
Cc1cc(C)c(N(S(=O)(=O)C(F)(F)F)S(=O)(=O)C(F)(F)F)cc1C(=O)N(C)CC1CC1 [Compound 169] | 30 | 0 | 40 | 50 | 20 | 60 | 40 | 20 | 60 | 10 | 10 | 40 | 0 | 50 | 0 | 80 | 100 | 30 | 80 | 100 | Plant response rating, Foxtail, Giant ([5]; 500 g ai/ha): 90; Plant response rating, Pigweed ([6]; 500 g ai/ha): 80; Barnyardgrass plant response rating [7, 19]: 90; Kochia plant response rating (kochia (Bassia scoparia) [8]; [19]): 50; Ragweed plant response rating [9, 19]: 90; Ryegrass, Italian plant response rating [10, 19]: 30; Foxtail, Giant plant response rating [11, 19]: 40; Pigweed plant response rating [12, 19]: 50; Wheat plant response rating [13, 19]: 0; Corn plant response rating (corn (Zea mays); [19]): 90; Blackgrass plant response rating [14, 19]: 20; Galium plant response rating [15, 19]: 90
Cc1c(C(=O)N2CCOCC2)cc(N(S(=O)(=O)C(F)(F)F)S(=O)(=O)C(F)(F)F)c(C)c1F [Compound 174] | 80 | 80 | 90 | 60 | 90 | 100 | 60 | 30 | 90 | 0 | 0 | 90 | 0 | 20 | 0 | 80 | – | – | – | – | Plant response rating, Barnyardgrass [1, 16]: 10; Plant response rating, Kochia (kochia (Bassia scoparia) [2]; [16]): 40; Plant response rating, Ragweed [3, 16]: 30; Plant response rating, Ryegrass, Italian [4, 16]: 40; Plant response rating, Foxtail, Giant [5, 16]: 30; Plant response rating, Pigweed [6, 16]: 90; Plant response rating, Barnyardgrass [7, 17]: 0; Plant response rating, Kochia (kochia (Bassia scoparia) [8]; [17]): 10; Plant response rating, Ragweed [9, 17]: 70; Plant response rating, Ryegrass, Italian [10, 17]: 0; Plant response rating, Foxtail, Giant [11, 17]: 0; Plant response rating, Pigweed [12, 17]: 70; Plant response rating, Wheat [13, 17]: 0; Plant response rating, Corn (corn (Zea mays); [17]): 0; Plant response rating, Blackgrass [14, 17]: 0; Plant response rating, Galium [15, 17]: 50
COC1CCCN(C(=O)c2cc(NS(=O)(=O)C(F)(F)F)c(C)cc2C)C1 (stereo not shown) [Compound 175] | 90 | 90 | 80 | 90 | 100 | 90 | 20 | 10 | 50 | 30 | 0 | 50 | 10 | 0 | 0 | 80 | 100 | 100 | 100 | 100 | Plant response rating, Foxtail, Giant ([5]; 500 g ai/ha): 100; Plant response rating, Pigweed ([6]; 500 g ai/ha): 100; Barnyardgrass plant response rating [7, 19]: 90; Kochia plant response rating (kochia (Bassia scoparia) [8]; [19]): 50; Ragweed plant response rating [9, 19]: 90; Ryegrass, Italian plant response rating [10, 19]: 80; Foxtail, Giant plant response rating [11, 19]: 30; Pigweed plant response rating [12, 19]: 90; Wheat plant response rating [13, 19]: 80; Corn plant response rating (corn (Zea mays); [19]): 10; Blackgrass plant response rating [14, 19]: 20; Galium plant response rating [15, 19]: 90
